# Measurements published in ChEMBL document CHEMBL5252638, “Novel triphenylphosphonium amphiphilic conjugates of glycerolipid type: synthesis, cytotoxic and antibacterial activity, and targeted cancer cell delivery” (RSC Med Chem, 2023).
# How the values were obtained:
# HuTu80 [1] = assay: Induction of cell cycle arrest in human HuTu80 cells assessed as accumulation of cell at G2/M phase at 10 uM measured after 48 hrs by propidium iodide staining based analysis (reference value: 18.7%); type: functional
# PANC-1 = assay: Cytotoxicity against human PANC-1 cells assessed as number of viable cells measured after 48 hrs by MTT based colorimetric assay; type: functional, cell-based; settings: PANC-1, 48 h
# HuTu80 [2] = assay: Induction of apoptosis in human HuTu80 cells assessed as late apoptotic cells at 10 uM incubated for 48 hrs by annexin V FITC/propidium iodide staining based flow cytometry analysis (reference value: 0.00%); type: functional
# A549 = assay: Cytotoxicity against human A549 cells assessed as number of viable cells measured after 48 hrs by MTT based colorimetric assay; type: functional, cell-based; settings: A549, 48 h
# T98G = assay: Cytotoxicity against human T98G cells assessed as number of viable cells measured after 48 hrs by MTT based colorimetric assay; type: functional, cell-based
# HuTu80 [3] = assay: Induction of mitochondrial membrane potential loss in human HuTu80 cells assessed as J-monomer green fluorescence intensity at 5 uM incubated for 24 hrs by JC10 staining based flow cytometry method (reference value: 5.7%); type: functional
# HuTu80 [4] = assay: Induction of apoptosis in human HuTu80 cells assessed as viable cells at 5 uM incubated for 48 hrs by annexin V FITC/propidium iodide staining based flow cytometry analysis (reference value: 93.71%); type: functional; settings: read-out: Activity
# HuTu80 [5] = assay: Induction of ROS production in human HuTu80 cells assessed as increase in fluorescence intensity at 5 uM measured after 48 hrs by flow cytometry based analysis (reference value: 380); type: functional
# HepG2 = assay: Cytotoxicity against human HepG2 cells assessed as number of viable cells measured after 48 hrs by MTT based colorimetric assay; type: functional, cell-based; settings: HepG2, 48 h
# PC-3 = assay: Cytotoxicity against human PC-3 cells assessed as number of viable cells measured after 48 hrs by MTT based colorimetric assay; type: functional, cell-based; settings: PC-3, 48 h
# Bacillus cereus [6] = assay: Antimicrobial activity against Bacillus cereus ATCC 10702 NCTC 8035 by serial microdilution method; type: functional
# Escherichia coli [7] = assay: Bactericidal activity against Escherichia coli ATCC 25922 by serial microdilution method; type: functional
# HuTu80 [8] = assay: Induction of cell cycle arrest in human HuTu80 cells assessed as accumulation of cell at G1/G0 phase at 5 uM measured after 48 hrs by propidium iodide staining based analysis (reference value: 72%); type: functional
# Enterococcus faecalis [9] = assay: Antimicrobial activity against Enterococcus faecalis ATCC 29212 by serial microdilution method; type: functional
# [10] = Cytotoxicity against human WI-38 cells assessed as number of viable cells measured after 48 hrs by MTT based colorimetric assay; type: toxicity, cell-based
# HuTu80 [11] = assay: Induction of mitochondrial membrane potential loss in human HuTu80 cells assessed as J-monomer green fluorescence intensity at 10 uM incubated for 24 hrs by JC10 staining based flow cytometry method (reference value: 5.7%); type: functional
# HuTu80 [12] = assay: Induction of cell cycle arrest in human HuTu80 cells assessed as accumulation of cell at G1/G0 phase at 10 uM measured after 48 hrs by propidium iodide staining based analysis (reference value: 72%); type: functional
# HuTu80 [13] = assay: Induction of mitochondrial membrane potential loss in human HuTu80 cells assessed as J-aggregates red fluorescence intensity at 10 uM incubated for 24 hrs by JC10 staining based flow cytometry method (reference value: 94.4%); type: functional
# HuTu80 [14] = assay: Induction of cell cycle arrest in human HuTu80 cells assessed as accumulation of cell at S phase at 10 uM measured after 48 hrs by propidium iodide staining based analysis (reference value: 8.1%); type: functional
# HuTu80 [15] = assay: Induction of cell cycle arrest in human HuTu80 cells assessed as accumulation of cell at G2/M phase at 5 uM measured after 48 hrs by propidium iodide staining based analysis (reference value: 18.7%); type: functional
# Escherichia coli [16] = assay: Antimicrobial activity against Escherichia coli ATCC 25922 by serial microdilution method; type: functional
# HuTu80 [17] = assay: Induction of apoptosis in human HuTu80 cells assessed as early apoptotic cells at 5 uM incubated for 48 hrs by annexin V FITC/propidium iodide staining based flow cytometry analysis (reference value: 1.74%); type: functional
# Staphylococcus aureus [18] = assay: Antimicrobial activity against Staphylococcus aureus ATCC 6538 P FDA 209P by serial microdilution method; type: functional
# M-HeLa = assay: Cytotoxicity against human HelaM cells assessed as number of viable cells measured after 48 hrs by MTT based colorimetric assay; type: functional, cell-based
# HuTu80 [19] = assay: Induction of ROS production in human HuTu80 cells assessed as increase in fluorescence intensity at 10 uM measured after 48 hrs by flow cytometry based analysis (reference value: 380); type: functional
# Staphylococcus aureus [20] = assay: Bactericidal against Staphylococcus aureus ATCC 6538 P FDA 209P by serial microdilution method; type: functional
# HuTu80 [21] = assay: Cytotoxicity against human HuTu80 cells assessed as number of viable cells measured after 48 hrs by MTT based colorimetric assay; type: functional, cell-based; settings: HuTu80, 48 h
# HuTu80 [22] = assay: Induction of apoptosis in human HuTu80 cells assessed as viable cells at 10 uM incubated for 48 hrs by annexin V FITC/propidium iodide staining based flow cytometry analysis (reference value: 93.71%); type: functional; settings: read-out: Activity
# HuTu80 [23] = assay: Induction of apoptosis in human HuTu80 cells assessed as late apoptotic cells at 5 uM incubated for 48 hrs by annexin V FITC/propidium iodide staining based flow cytometry analysis (reference value: 0.00%); type: functional
# Homo sapiens [24] = species: Homo sapiens; assay: Selectivity index, ratio of IC50 for human WI-38 cells to IC50 for human HuTu80 cells
# DU-145 = assay: Cytotoxicity against human DU-145 cells assessed as number of viable cells measured after 48 hrs by MTT based colorimetric assay; type: functional, cell-based; settings: DU-145, 48 h
# HuTu80 [25] = assay: Induction of apoptosis in human HuTu80 cells assessed as necrotic cells at 10 uM incubated for 48 hrs by annexin V FITC/propidium iodide staining based flow cytometry analysis (reference value: 4.56%); type: functional
# Bacillus cereus [26] = assay: Bactericidal activity against Bacillus cereus ATCC 10702 NCTC 8035 by serial microdilution method; type: functional
# HuTu80 [27] = assay: Induction of apoptosis in human HuTu80 cells assessed as early apoptotic cells at 10 uM incubated for 48 hrs by annexin V FITC/propidium iodide staining based flow cytometry analysis (reference value: 1.74%); type: functional
# Enterococcus faecalis [28] = assay: Bactericidal activity against Enterococcus faecalis ATCC 29212 by serial microdilution method; type: functional
# MCF7 = assay: Cytotoxicity against human MCF7 cells assessed as number of viable cells measured after 48 hrs by MTT based colorimetric assay; type: functional, cell-based; settings: MCF7, 48 h
# HuTu80 [29] = assay: Induction of mitochondrial membrane potential loss in human HuTu80 cells assessed as J-aggregates red fluorescence intensity at 5 uM incubated for 24 hrs by JC10 staining based flow cytometry method (reference value: 94.4%); type: functional
# [30] = Cytotoxicity against human Chang liver cells assessed as number of viable cells measured after 48 hrs by MTT based colorimetric assay; type: toxicity, cell-based
# HuTu80 [31] = assay: Induction of cell cycle arrest in human HuTu80 cells assessed as accumulation of cell at S phase at 5 uM measured after 48 hrs by propidium iodide staining based analysis (reference value: 8.1%); type: functional
# HuTu80 [32] = assay: Induction of apoptosis in human HuTu80 cells assessed as necrotic cells at 5 uM incubated for 48 hrs by annexin V FITC/propidium iodide staining based flow cytometry analysis (reference value: 4.56%); type: functional
# SK-OV-3 = assay: Cytotoxicity against human SK-OV-3 cells assessed as number of viable cells measured after 48 hrs by MTT based colorimetric assay; type: functional, cell-based; settings: SK-OV-3, 48 h
# Homo sapiens [33] = species: Homo sapiens; assay: Selectivity index, ratio of IC50 for human Chang liver cells to IC50 for human DU-145 cells
# Homo sapiens [34] = species: Homo sapiens; assay: Selectivity index, ratio of IC50 for human Chang liver cells to IC50 for human SK-OV-3 cells
# Homo sapiens [35] = species: Homo sapiens; assay: Selectivity index, ratio of IC50 for human Chang liver cells to IC50 for human HuTu80 cells
# Homo sapiens [36] = species: Homo sapiens; assay: Selectivity index, ratio of IC50 for human Chang liver cells to IC50 for human MCF7 cells
# Homo sapiens [37] = species: Homo sapiens; assay: Selectivity index, ratio of IC50 for human Chang liver cells to IC50 for human PC-3 cells
smiles,measurement,setting,value
CCCCCCCC/C=C\CCCCCCCC(=O)OCC(O)COC(=O)CCCC[P+](c1ccccc1)(c1ccccc1)c1ccccc1.[Br-] (centres undefined),Activity,HuTu80 [1],1.1%
same,IC50,PANC-1,62.5 µM
same,Activity,HuTu80 [2],33.13%
same,IC50,A549,71.3 µM
same,IC50,T98G,62.5 µM
same,Activity,HuTu80 [3],49%
same,viability at 5 µM,HuTu80 [4],63.7%
same,Flu intensity,HuTu80 [5],700
same,IC50,HepG2,100 µM
same,IC50,PC-3,51 µM
same,MIC,Bacillus cereus [6],7.8 µM
same,MBC,Escherichia coli [7],125 µM
same,Activity,HuTu80 [8],84%
same,MIC,Enterococcus faecalis [9],7.8 µM
same,IC50 at 48 h,[10],53.1 µM
same,Activity,HuTu80 [11],67.5%
same,Activity,HuTu80 [12],87%
same,Activity,HuTu80 [13],30.1%
same,Activity,HuTu80 [14],1.2%
same,Activity,HuTu80 [15],3%
same,MIC,Escherichia coli [16],125 µM
same,Activity,HuTu80 [17],3.35%
same,MIC,Staphylococcus aureus [18],31.3 µM
same,IC50,M-HeLa,60.2 µM
same,Flu intensity,HuTu80 [19],1500
same,MBC,Staphylococcus aureus [20],500 µM
same,IC50,HuTu80 [21],10 µM
same,viability at 10 µM,HuTu80 [22],37.6%
same,Activity,HuTu80 [23],15.18%
same,Ratio IC50,Homo sapiens [24],5.1
same,IC50,DU-145,41 µM
same,Activity,HuTu80 [25],24.48%
same,MBC,Bacillus cereus [26],500 µM
same,Activity,HuTu80 [27],4.78%
same,MBC,Enterococcus faecalis [28],125 µM
same,IC50,MCF7,52.1 µM
same,Activity,HuTu80 [29],51.1%
same,IC50 at 48 h,[30],34 µM
same,Activity,HuTu80 [31],2.1%
same,Activity,HuTu80 [32],17.73%
same,IC50,SK-OV-3,52 µM
CCCCC/C=C\C/C=C\CCCCCCCC(=O)OCC(COC(=O)CCCC[P+](c1ccccc1)(c1ccccc1)c1ccccc1)OC(=O)CCCC[P+](c1ccccc1)(c1ccccc1)c1ccccc1 (centres undefined),IC50,PANC-1,46.7 µM
same,Ratio IC50,Homo sapiens [33],1.5
same,IC50,A549,70 µM
same,IC50,T98G,51.7 µM
same,Ratio IC50,Homo sapiens [34],1.1
same,IC50,HepG2,64.5 µM
same,IC50,PC-3,40.3 µM
same,MIC,Bacillus cereus [6],6.4 µM
same,MBC,Escherichia coli [7],12.8 µM
same,MIC,Enterococcus faecalis [9],12.8 µM
same,IC50 at 48 h,[10],41.1 µM
same,MIC,Escherichia coli [16],6.4 µM
same,MIC,Staphylococcus aureus [18],3.2 µM
same,IC50,M-HeLa,53.8 µM
same,MBC,Staphylococcus aureus [20],3.2 µM
same,IC50,HuTu80 [21],9 µM
same,Ratio IC50,Homo sapiens [35],5
same,IC50,DU-145,29.4 µM
same,MBC,Bacillus cereus [26],500 µM
same,MBC,Enterococcus faecalis [28],51.2 µM
same,IC50,MCF7,24.7 µM
same,IC50 at 48 h,[30],45 µM
same,Ratio IC50,Homo sapiens [36],1.8
same,Ratio IC50,Homo sapiens [37],1.1
same,IC50,SK-OV-3,39.4 µM
O=c1[nH]cc(F)c(=O)[nH]1 [FLUOROURACIL],IC50,PANC-1,100 µM
same,IC50,A549,32.4 µM
same,IC50,PC-3,10.3 µM
same,IC50 at 48 h,[10],62 µM
same,IC50,M-HeLa,62 µM
same,IC50,HuTu80 [21],65.2 µM
same,IC50 at 48 h,[30],19 µM
same,IC50,SK-OV-3,47.2 µM
